Patent US20170027954A1, “METHODS OF ENHANCING ANTIBODY-DEPENDENT CELLULAR CYTOTOXICITY” (VENTIRX PHARMACEUTICALS, INC., priority 2010, published 2017)

Columns and labels:
Type in all cases: cell-based, human
K562 target cells = assay: NK assay: lysis of Calcein AM labeled K562 target cells by PBMCs stimulated with the ADCC enhancer; settings: FIG. 1
Procedure: Stimulation of PBMCs: Human Peripheral blood mononuclear cells (PBMCs) were isolated by Ficoll™ density gradient centrifugation and resuspended in RPMI containing 2% heat-inactivated FBS. PBMCs at a concentration of 1 to 3 million cells per mL were incubated with 10-500 nM ADCC enhancer in a humidified CO2 incubator for 18-72 hrs. Activated PBMCs were then used as effector cells in NK and ADCC assays. NK and ADCC Assays: PBMCs activated with the ADCC enhancer were tested for the ability to enhance killing of the NK sensitive target cell line K562 or various tumor cells coated with monoclonal antibodies. Target cells were labeled with the fluorescent dye Calcein AM for 1 hour at 37° C. in a dark humidified CO2 incubator. […] Activated effector cells and labeled target cells were incubated in 96-well tissue culture plates at for 4 hours at 37° C. in a dark humidified CO2 incubator in an assay buffer containing HBSS+Ca/Mg+5% FBS. […] Fluorecence was quantified with a fluorescent microtiter plate reader. The % specific lysis was calculated as (Sample fluorescence-spontaneous fluorescence)*100/(100% fluorescence-spontaneous). 100% fluorescence was determined from wells that contained labeled target cells and detergent such at 0.1% Tween-20 or Triton X-100. Spontaneous fluorescence was determined from wells that contained assay buffer and target cells but not effector cells. […]

[1] = test system: breast cancer cell line SKBR3; assay: Herceptin-mediated ADCC of SKBR3 cells by PBMC effector cells; settings: PBMCs activated with the ADCC enhancer; FIG. 3
Procedure: (§1) Stimulation of PBMCs: Human Peripheral blood mononuclear cells (PBMCs) were isolated by Ficoll™ density gradient centrifugation and resuspended in RPMI containing 2% heat-inactivated FBS. PBMCs at a concentration of 1 to 3 million cells per mL were incubated with 10-500 nM ADCC enhancer in a humidified CO2 incubator for 18-72 hrs. Activated PBMCs were then used as effector cells in NK and ADCC assays. NK and ADCC Assays: PBMCs activated with the ADCC enhancer were tested for the ability to enhance killing of the NK sensitive target cell line K562 or various tumor cells coated with monoclonal antibodies. Target cells were labeled with the fluorescent dye Calcein AM for 1 hour at 37° C. in a dark humidified CO2 incubator. […] Activated effector cells and labeled target cells were incubated in 96-well tissue culture plates at for 4 hours at 37° C. in a dark humidified CO2 incubator in an assay buffer containing HBSS+Ca/Mg+5% FBS. […] Fluorecence was quantified with a fluorescent microtiter plate reader. The % specific lysis was calculated as (Sample fluorescence-spontaneous fluorescence)*100/(100% fluorescence-spontaneous). 100% fluorescence was determined from wells that contained labeled target cells and detergent such at 0.1% Tween-20 or Triton X-100. Spontaneous fluorescence was determined from wells that contained assay buffer and target cells but not effector cells.

[2] = test system: rituximab-coated HS-Sultan cells; assay: Rituximab-mediated ADCC of HS-Sultan cells with PBMCs from FcγR-genotyped donors; settings: for rituximab-mediated ADCC, specific lysis: ratio 100:1, FIG. 5; for baseline ADCC (percent specific lysis): buffer control
Procedure: Percent specific lysis is shown for Rituxan-coated HS-Sultan cells incubated with PBMC effector cells at an E:T ratio of 50:1. PBMCs from a patient with the high affinity genotype FcgR2a131 H/H and FcgR3a V/V (solid rectangles) or a patient with the lower affinity genotype FcgR2a131 […] and FcgR3a V/F (open rectangles) were evaluated for ADCC after stimulation with buffer control (baseline) or stimulation with 500 nM ADCC enhancer.
ADCC is mediated through immune effector cells included NK cells that engage the Fc portion of the monoclonal antibody through specific receptors. Patients with single nucleotide polymorphisms in these receptors such as FcRgamma3a position 158 and FcRgamma2a position 131 have a poorer clinical prognosis presumably from poor ADCC due to a lower affinity of the receptor for the monoclonal antibody. […] To determine if this common polymorphism affects the baseline antibody-dependent cellular cytoxicity (ADCC) response and/or response to the ADCC enhancer molecule of the present invention (Compound VTX-2337), PBMCs from donors were genotyped for the two alleles encoding the F and V isoforms, respectively, and tested in vitro. We analyzed rituximab-mediated ADCC using unstimulated PBMC or VTX-2337-stimulated PBMC from 15 donors, including 10 donors with FF or FV phenotype and 5 donors with VV phenotype.
Blood was collected from healthy donors and PBMCs were isolated using a Ficoll gradient. PBMCs were activated by culturing them in the presence of 500 nM VTX-2337 at 37° C. in a humidified 5%CO2 incubator for 48 hours. Activated PBMCs were then incubated with rituximab-coated HS-Sultan cells loaded at a ratio of 100:1 for 4 hours. Lysis was determined by measuring release of the fluorescent dye Calcein AM from the HS-Sultan cells.

[3] = test system: breast cancer cell line MDA-MB-231; assay: Herceptin-mediated ADCC of MDA-MB-231 cells by PBMC effector cells; settings: PBMCs activated with the ADCC enhancer; FIG. 3
Procedure: as §1

| Molecule | lysis of K562 target cells (K562 target cells; PBMCs stimulated with 167 nM ADCC enhancer) | lysis of K562 target cells (K562 target cells; PBMCs stimulated with 500 nM ADCC enhancer) | cell killing of Herceptin coated SKBR3 cells [1] [%] | rituximab-mediated ADCC, specific lysis ([2]; PBMC from high affinity VV donors stimulated with 500 nM VTX-2337 for 48 hours) [%] | rituximab-mediated ADCC, specific lysis ([2]; PBMC from low affinity FF/FV donors stimulated with 500 nM VTX-2337 for 48 hours) [%] | ADCC (percent specific lysis) ([2]; patient with low affinity genotype, PBMCs stimulated with 500 nM ADCC enhancer, Rituxan-coated targets, E:T 50:1, FIG. 4) [%] | cell killing of Herceptin coated MDA-MB-231 cells [3] | baseline ADCC (percent specific lysis) ([2]; patient with high affinity genotype, E:T 50:1, FIG. 4) | baseline ADCC (percent specific lysis) ([2]; patient with lower affinity genotype, E:T 50:1, FIG. 4) [%] | rituximab-mediated ADCC, specific lysis ([2]; unstimulated PBMC from FF/FV donors) [%] | rituximab-mediated ADCC, specific lysis ([2]; unstimulated PBMC from VV donors) [%] |
| --- | --- | --- | --- | --- | --- | --- | --- | --- | --- | --- | --- |
| CCCN(CCC)C(=O)C1=Cc2ccc(-c3ccc(C(=O)N4CCCC4)cc3)cc2N=C(N)C1 [ADCC enhancer, {2-amino-8-[4-(pyrrolidinylcarbonyl)phenyl]-(3H-benzo[f]azepin-4-yl)}-N,N-dipropylcarboxamide] | up to 45% | greater than 90% | > 80 | 55.5±2.6 | 40.0±4.1 | 30 | 40-60% |  |  |  |  |
| Rituxan: monoclonal antibody against the protein CD20 |  |  |  |  |  |  |  | approximately 30% | 10 | 20.5±2.5 | 31.7±2.9 |
